Results taken from article doi:10.1101/615575v1 (biorxiv, 2019).

Biological target: PdtaS (PdtaS-EGFP; mtPdtaS; Rv3220c) (Mycobacterium tuberculosis, UniProt P9WGL5)
Test: biochemical

Chain of PdtaS (PdtaS-EGFP; mtPdtaS; Rv3220c) (P9WGL5 whole entry): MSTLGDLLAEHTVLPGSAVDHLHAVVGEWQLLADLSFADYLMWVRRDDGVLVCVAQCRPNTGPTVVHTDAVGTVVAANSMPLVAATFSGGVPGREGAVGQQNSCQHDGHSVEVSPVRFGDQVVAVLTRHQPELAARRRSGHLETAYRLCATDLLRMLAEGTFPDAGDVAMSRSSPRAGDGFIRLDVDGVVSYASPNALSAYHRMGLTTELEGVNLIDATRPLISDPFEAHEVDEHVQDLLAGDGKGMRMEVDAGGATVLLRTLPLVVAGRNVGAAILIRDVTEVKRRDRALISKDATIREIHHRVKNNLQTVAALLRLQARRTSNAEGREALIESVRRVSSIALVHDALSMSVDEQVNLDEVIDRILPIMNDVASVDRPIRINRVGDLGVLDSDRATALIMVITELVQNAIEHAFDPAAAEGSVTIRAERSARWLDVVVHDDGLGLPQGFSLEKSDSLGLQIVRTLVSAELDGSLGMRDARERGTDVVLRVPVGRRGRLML

For `Nc1nc2c(ncn2[C@@H]2O[C@@H]3CO[P@](=O)(O)O[C@H]4[C@@H](O)[C@H](n5cnc6c(=O)[nH]c(N)nc65)O[C@@H]4CO[P@](=O)(O)O[C@H]3[C@H]2O)c(=O)[nH]1` [c-di-GMP], the Kd was 326 ± 107 nM.
